Results reported in the supplement of paper PMC10307832.

How the values were obtained:
Test in all cases: relative viability (nuclei count vs DMSO), 5 days (fraction); higher = more cells survive
[1] = compound: Cc1nc(C(=O)NCC(=O)O)c(O)c2ccc(Oc3ccccc3)cc12 [FG-4592] + CC1(C)CCC(c2ccc(Cl)cc2)=C(CN2CCN(c3ccc(C(=O)NS(=O)(=O)c4ccc(N[C@H](CCN5CCOCC5)CSc5ccccc5)c(S(=O)(=O)C(F)(F)F)c4)cc3)CC2)C1 [Navitoclax] (partner 0.5 µM)
Method in brief: (§1)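 Cells from lung cancer lines were seeded into 1536-well plates and, one day later, dosed by pin tool. Treatments were either a single drug or a fixed dose of an anchor drug with five library-drug doses (not always all listed) in √10 steps. After 5 days, nuclei were stained in a one-step fixation (final 0.05% Triton X-100, 1% formaldehyde, 1 ug/ml Hoechst) and counted on 4× images, and relative viability is the treated-to-vehicle nuclei ratio, as the median of duplicate plates.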

[2] = compound: CC1=CC(=C(N1C2=CC=C(C=C2)Cl)C)C(=O)CN3CCCCC3 [IU1-47] + C[C@@H](Oc1cc(-c2cnn(C3CCNCC3)c2)cnc1N)c1c(Cl)ccc(F)c1Cl [Crizotinib] (partner 1 µM)
Method in brief: as §1

[3] = compound: Cc1nc(C(=O)NCC(=O)O)c(O)c2ccc(Oc3ccccc3)cc12 [FG-4592] + CCNC(=O)c1noc(-c2cc(C(C)C)c(O)cc2O)c1-c1ccc(CN2CCOCC2)cc1 [Luminespib] (partner 0.01 µM)
Method in brief: as §1

[4] = compound: Cc1nc(C(=O)NCC(=O)O)c(O)c2ccc(Oc3ccccc3)cc12 [FG-4592] + Cc1nc(Nc2ncc(C(=O)Nc3c(C)cccc3Cl)s2)cc(N2CCN(CCO)CC2)n1 [Dasatinib] (partner 0.075 µM)
Method in brief: as §1

NCI-H2023 gave a relative viability ([1]; first compound 0.08 µM) of 0.991, a relative viability ([1]; first compound 0.253 µM) of 1 and a relative viability ([1]; first compound 0.8 µM) of 1.12. For the same cell line, the relative viability ([1]; first compound 2.53 µM) was 0.94, the relative viability ([1]; first compound 8 µM) was 0.829 and the relative viability ([2]; first compound 0.08 µM) was 0.663. It also gave a relative viability ([2]; first compound 0.253 µM) of 0.67, a relative viability ([2]; first compound 0.8 µM) of 0.645 and a relative viability ([2]; first compound 2.53 µM) of 0.78. For the same cell line, the relative viability ([2]; first compound 8 µM) was 0.581, the relative viability ([3]; first compound 0.08 µM) was 0.617 and the relative viability ([3]; first compound 0.253 µM) was 0.634. For the same cell line, the relative viability ([3]; first compound 0.8 µM) was 0.698, the relative viability ([3]; first compound 2.53 µM) was 0.773 and the relative viability ([3]; first compound 8 µM) was 0.599. For the same cell line, the relative viability ([4]; first compound 0.08 µM) was 0.612, the relative viability ([4]; first compound 0.253 µM) was 0.529 and the relative viability ([4]; first compound 0.8 µM) was 0.54. The relative viability ([4]; first compound 2.53 µM) was 0.522 and the relative viability ([4]; first compound 8 µM) was 0.377.
In the case of NCI-H2085, the relative viability ([1]; first compound 0.08 µM) is reported as 1.18, the relative viability ([1]; first compound 0.253 µM) is reported as 1.09 and the relative viability ([1]; first compound 0.8 µM) is reported as 1.1. The relative viability ([1]; first compound 2.53 µM) was 1.15, the relative viability ([1]; first compound 8 µM) was 1.08 and the relative viability ([2]; first compound 0.08 µM) was 0.911. It also gave a relative viability ([2]; first compound 0.253 µM) of 0.847, a relative viability ([2]; first compound 0.8 µM) of 0.851 and a relative viability ([2]; first compound 2.53 µM) of 0.869. It also gave a relative viability ([2]; first compound 8 µM) of 0.739, a relative viability ([3]; first compound 0.08 µM) of 0.439 and a relative viability ([3]; first compound 0.253 µM) of 0.47. It also gave a relative viability ([3]; first compound 0.8 µM) of 0.389, a relative viability ([3]; first compound 2.53 µM) of 0.426 and a relative viability ([3]; first compound 8 µM) of 0.462. The relative viability ([4]; first compound 0.08 µM) was 0.17, the relative viability ([4]; first compound 0.253 µM) was 0.228 and the relative viability ([4]; first compound 0.8 µM) was 0.196. The relative viability ([4]; first compound 2.53 µM) was 0.254 and the relative viability ([4]; first compound 8 µM) was 0.264.
NCI-H2087 was tested, and the relative viability ([1]; first compound 0.08 µM) was 1.01, the relative viability ([1]; first compound 0.253 µM) was 0.946 and the relative viability ([1]; first compound 0.8 µM) was 1.04. It also gave a relative viability ([1]; first compound 2.53 µM) of 0.98, a relative viability ([1]; first compound 8 µM) of 1.03 and a relative viability ([2]; first compound 0.08 µM) of 1.01. For the same cell line, the relative viability ([2]; first compound 0.253 µM) was 0.83, the relative viability ([2]; first compound 0.8 µM) was 0.947 and the relative viability ([2]; first compound 2.53 µM) was 1.04. The relative viability ([2]; first compound 8 µM) was 0.806, the relative viability ([3]; first compound 0.08 µM) was 0.196 and the relative viability ([3]; first compound 0.253 µM) was 0.151. For the same cell line, the relative viability ([3]; first compound 0.8 µM) was 0.142, the relative viability ([3]; first compound 2.53 µM) was 0.151 and the relative viability ([3]; first compound 8 µM) was 0.148. For the same cell line, the relative viability ([4]; first compound 0.08 µM) was 0.793, the relative viability ([4]; first compound 0.253 µM) was 0.864 and the relative viability ([4]; first compound 0.8 µM) was 0.862. The relative viability ([4]; first compound 2.53 µM) was 0.861 and the relative viability ([4]; first compound 8 µM) was 0.757.
In the case of NCI-H2126, the relative viability ([1]; first compound 0.08 µM) is reported as 0.825, the relative viability ([1]; first compound 0.253 µM) is reported as 0.773 and the relative viability ([1]; first compound 0.8 µM) is reported as 0.817. It also gave a relative viability ([1]; first compound 2.53 µM) of 0.875, a relative viability ([1]; first compound 8 µM) of 0.807 and a relative viability ([2]; first compound 0.08 µM) of 1.08. It also gave a relative viability ([2]; first compound 0.253 µM) of 1.08, a relative viability ([2]; first compound 0.8 µM) of 1.03 and a relative viability ([2]; first compound 2.53 µM) of 0.813. It also gave a relative viability ([2]; first compound 8 µM) of 0.972, a relative viability ([3]; first compound 0.08 µM) of 0.918 and a relative viability ([3]; first compound 0.253 µM) of 0.904. It also gave a relative viability ([3]; first compound 0.8 µM) of 0.887, a relative viability ([3]; first compound 2.53 µM) of 0.759 and a relative viability ([3]; first compound 8 µM) of 0.603. For the same cell line, the relative viability ([4]; first compound 0.08 µM) was 0.642, the relative viability ([4]; first compound 0.253 µM) was 0.578 and the relative viability ([4]; first compound 0.8 µM) was 0.476. The relative viability ([4]; first compound 2.53 µM) was 0.506 and the relative viability ([4]; first compound 8 µM) was 0.384.
NCI-H2170 gave a relative viability ([1]; first compound 0.08 µM) of 0.708, a relative viability ([1]; first compound 0.253 µM) of 0.593 and a relative viability ([1]; first compound 0.8 µM) of 0.691. The relative viability ([1]; first compound 2.53 µM) was 0.485, the relative viability ([1]; first compound 8 µM) was 0.322 and the relative viability ([2]; first compound 0.08 µM) was 1.42. For the same cell line, the relative viability ([2]; first compound 0.253 µM) was 1.44, the relative viability ([2]; first compound 0.8 µM) was 1.26 and the relative viability ([2]; first compound 2.53 µM) was 1.11. For the same cell line, the relative viability ([2]; first compound 8 µM) was 1.25, the relative viability ([3]; first compound 0.08 µM) was 0.653 and the relative viability ([3]; first compound 0.253 µM) was 0.62. It also gave a relative viability ([3]; first compound 0.8 µM) of 0.538, a relative viability ([3]; first compound 2.53 µM) of 0.606 and a relative viability ([3]; first compound 8 µM) of 0.501. For the same cell line, the relative viability ([4]; first compound 0.08 µM) was 0.592, the relative viability ([4]; first compound 0.253 µM) was 0.478 and the relative viability ([4]; first compound 0.8 µM) was 0.412. For the same cell line, the relative viability ([4]; first compound 2.53 µM) was 0.59 and the relative viability ([4]; first compound 8 µM) was 0.497.
NCI-H2228 was tested, and the relative viability ([1]; first compound 0.08 µM) was 0.949, the relative viability ([1]; first compound 0.253 µM) was 0.663 and the relative viability ([1]; first compound 0.8 µM) was 0.896. For the same cell line, the relative viability ([1]; first compound 2.53 µM) was 0.832, the relative viability ([1]; first compound 8 µM) was 0.819 and the relative viability ([2]; first compound 0.08 µM) was 0.524. It also gave a relative viability ([2]; first compound 0.253 µM) of 0.455, a relative viability ([2]; first compound 0.8 µM) of 0.449 and a relative viability ([2]; first compound 2.53 µM) of 0.555. It also gave a relative viability ([2]; first compound 8 µM) of 0.448, a relative viability ([3]; first compound 0.08 µM) of 0.151 and a relative viability ([3]; first compound 0.253 µM) of 0.181. For the same cell line, the relative viability ([3]; first compound 0.8 µM) was 0.174, the relative viability ([3]; first compound 2.53 µM) was 0.113 and the relative viability ([3]; first compound 8 µM) was 0.16. The relative viability ([4]; first compound 0.08 µM) was 0.569, the relative viability ([4]; first compound 0.253 µM) was 0.411 and the relative viability ([4]; first compound 0.8 µM) was 0.548. It also gave a relative viability ([4]; first compound 2.53 µM) of 0.475 and a relative viability ([4]; first compound 8 µM) of 0.489.
With NCI-H2347 the relative viability ([1]; first compound 0.08 µM) was 0.862, the relative viability ([1]; first compound 0.8 µM) was 0.648 and the relative viability ([1]; first compound 2.53 µM) was 0.804. It also gave a relative viability ([1]; first compound 8 µM) of 0.897, a relative viability ([2]; first compound 0.08 µM) of 0.575 and a relative viability ([2]; first compound 0.253 µM) of 0.746. For the same cell line, the relative viability ([2]; first compound 0.8 µM) was 0.727, the relative viability ([2]; first compound 2.53 µM) was 0.674 and the relative viability ([2]; first compound 8 µM) was 0.762. It also gave a relative viability ([3]; first compound 0.08 µM) of 0.4, a relative viability ([3]; first compound 0.8 µM) of 0.258 and a relative viability ([3]; first compound 2.53 µM) of 0.323. The relative viability ([3]; first compound 8 µM) was 0.293, the relative viability ([4]; first compound 0.08 µM) was 0.323 and the relative viability ([4]; first compound 0.8 µM) was 0.263. For the same cell line, the relative viability ([4]; first compound 2.53 µM) was 0.284 and the relative viability ([4]; first compound 8 µM) was 0.279.
With NCI-H2405 the relative viability ([1]; first compound 0.253 µM) was 0.437, the relative viability ([1]; first compound 0.8 µM) was 0.874 and the relative viability ([1]; first compound 2.53 µM) was 0.731. For the same cell line, the relative viability ([1]; first compound 8 µM) was 0.711, the relative viability ([2]; first compound 0.08 µM) was 0.901 and the relative viability ([2]; first compound 0.253 µM) was 0.837. The relative viability ([2]; first compound 0.8 µM) was 0.778, the relative viability ([2]; first compound 2.53 µM) was 0.878 and the relative viability ([2]; first compound 8 µM) was 0.836. The relative viability ([3]; first compound 0.08 µM) was 0.577, the relative viability ([3]; first compound 0.8 µM) was 0.675 and the relative viability ([3]; first compound 2.53 µM) was 0.691. For the same cell line, the relative viability ([3]; first compound 8 µM) was 0.658, the relative viability ([4]; first compound 0.08 µM) was 0.218 and the relative viability ([4]; first compound 0.8 µM) was 0.231. For the same cell line, the relative viability ([4]; first compound 2.53 µM) was 0.184 and the relative viability ([4]; first compound 8 µM) was 0.204.
